Test results published in PubChem BioAssay AID2384 (Southern Research Specialized Biocontainment Screening …, 2010).

Test system: S. typhi GFP reporter counter-screen, fluorescence, 4 h
Assay: inhibitors in S. typhi counter-screen strain, dose response, counter-screen for PhoP regulon inhibitor project, fluorescence, 4 h (AID 2384)

Structure (SMILES) | IC50
C#CCOCCOCCOCCNc1nc(N2CCN(C(=O)CCCCCCCCCCNC(=O)[C@H](CCCCN)n3cc(C)nn3)CC2)nc(N2CCN(C(=O)CCCCCCCCCCNC(=O)[C@H](CO)n3cc(CCCSC)nn3)CC2)n1 | 130 µM
CCC(=O)c1ccc(OCC(O)CNCCc2ccc(Cl)cc2)cc1 (centres undefined) | 147 µM
CN1CCN(c2nc3cc(C(F)(F)F)ccc3n3cccc23)CC1 | 42.4 µM
Cc1cccn2c(=O)c(C=O)c(Cl)nc12 | 145 µM
CC[C@H]1OC(=O)C[C@@H](O)[C@H](C)[C@@H](O[C@@H]2O[C@H](C)C[C@H](N(C)C)[C@H]2O)[C@@H](CC=O)C[C@@H](C)C(=O)C=C[C@]2(C)O[C@H]2[C@@H]1C | 3.95 µM
c1ccc(CN2CCC(N3CCN(Cc4ccc5c(c4)OCO5)CC3)CC2)cc1 | 150 µM
c1ccc(CN2CCC(Nc3nc(-c4cccs4)nc4ccccc34)CC2)cc1 | 37.2 µM
CSc1ccc2c(c1)C(N1CCN(C)CC1)Cc1ccc(F)cc1S2 (centres undefined) | 23.9 µM
Oc1ccccc1Nc1nc(NCc2ccco2)c2ccccc2n1 | 50.9 µM
CC(=O)c1cc(O)c2ccccc2c1O | 107 µM
CN1CCN(C2=Cc3ccccc3Sc3cc(F)c(F)cc32)CC1 | 37.3 µM
O=C(CN1CC(c2ccccc2)CC1=O)N/N=C/c1cc(Br)ccc1O (centres undefined) | 40.2 µM
CN(C)CC/C=C1\c2ccc(F)cc2Sc2cc(F)c(Cl)cc21 | 19.5 µM
NCCCCCc1nnc(SCc2ccc(Cl)cc2Cl)o1 | 98.3 µM
O=C(O)c1cc2c(cn1)[nH]c1ccccc12 | 92.6 µM
Oc1ccc(CN2CCN(c3ccccc3)CC2)c2cccnc12 | 99.6 µM
O=C(Cc1ccccc1)NNC(=S)NC(=O)c1cccs1 | 32.3 µM
NC(N)=Nc1nc(-c2ccccc2)c2cc(Cl)ccc2n1 | 90.2 µM
O=C(N/N=C/c1c[nH]c2ccccc12)c1cc2ccccc2o1 | 99.8 µM
CCn1cc(C(=O)O)c(=O)c2cc(F)c(N3CCN(C(=S)Nc4ccccc4OC)CC3)cc21 | 41.1 µM
c1cc2c(cc1C1CCCCC1)c1c3n2CCN=C3CCC1 | 37.9 µM
CN1CCN(C2=Cc3ccccc3Sc3cc(F)ccc32)CC1 | 46.7 µM
Oc1ccccc1-c1cc(C(F)(F)C(F)F)[nH]n1 | 81.2 µM
Cc1cc(N=Nc2ccccc2)c(NCC(O)C(O)C(O)CO)cc1C (centres undefined) | 144 µM

Structure (SMILES) | IC50
O=C(O)c1sccc1Oc1ccc(F)cc1[N+](=O)[O-] | 13.1 µM
Cc1ccc(-c2c[n+](Cc3ccc(Cl)c(Cl)c3)c3n2CCC3)cc1 | 25.8 µM
CCn1cc(C(=O)O)c(=O)c2cnc(N3CCNCC3)nc21 | 50.1 µM
O=C(/C=C/c1ccco1)NC(=S)NNC(=O)c1ccco1 | 90.8 µM
O=C(CCN1CCOCC1)N/N=C/c1cc(Br)cc(Br)c1O | 27.3 µM
O=C(N/N=C/c1ccc([N+](=O)[O-])s1)c1ccccc1Br | 77.5 µM
O=C(CC(=O)c1cc(Cl)ccc1O)c1ccccc1 | 26.8 µM
CCOC(=O)N1CCN(C(=O)c2cn(CC)c3cc(N4CCN(C)CC4)c(F)cc3c2=O)CC1 | 20.3 µM
CC1CCc2cc(F)cc3c(=O)c(C(=O)O)cn1c23 (centres undefined) | 15.6 µM
CCCCCCCCNC(C)C(O)c1ccc(SC(C)C)cc1 (centres undefined) | 30.7 µM
O=C(/C=C/c1ccccc1)c1ccc(NC2=NCCCS2)cc1 | 67.3 µM
O=Nc1c(O)c2ccccc2c2ccccc12 | 37.7 µM
COc1cccc(Nc2nc(NCCO)c3ccccc3n2)c1 | 57.8 µM
CCCCCCCCCCCCCCCC[n+]1cccc(C(=O)N(CC)CC)c1 | 18.3 µM
CC(C(=O)c1ccc(-c2ccccc2)cc1)[n+]1cccc(NC(=O)c2ccccc2)c1 (centres undefined) | 19.4 µM
COC(=O)C(C)NC(=S)N1CCN(c2c(F)cc3c(=O)c(C(=O)O)cn(C4CC4)c3c2OC)CC1C (centres undefined) | 39.6 µM
COc1ccc(/C=C/C(=O)NC(=S)NNC(=O)c2cnccn2)cc1 | 30.6 µM
O=C(N/N=C/c1cc(Cl)ccc1O)c1ccncc1 | 17.3 µM
CCn1cc(C(=O)O)c(=O)c2cc(F)c(N3CCN(C(=S)Nc4ccc(OC)cc4)CC3)cc21 | 35.9 µM
N#C/C(=C\c1ccc(O)c(O)c1)C(=O)NCc1ccccc1 | 132 µM
CC(=O)NC(c1cccs1)c1cc([N+](=O)[O-])c2cccnc2c1O (centres undefined) | 25.4 µM
CCCCCCCCC1=NCCc2c1[nH]c1ccccc21 | 78.4 µM
Cc1ccc2cc(CN(CCN(C)C)C(=O)Nc3ccc(Cl)cc3)c(=O)[nH]c2c1 | 50.3 µM
Cc1nc2c(=O)n(C)c(=O)nc-2n(C)n1 | 2.32 µM

Structure (SMILES) | IC50
CCCNC(=O)c1cn(CC)c2cc(N3CCN(C)CC3)c(F)cc2c1=O | 30.6 µM
CCOC(=O)c1c(-c2ccc(-c3ccccc3)cc2)csc1NC(=O)CNCCN(C)C | 82.7 µM
CCc1ccc2c(c1)Sc1ccccc1CC2N1CCN(C)CC1 (centres undefined) | 31.3 µM
C/C(=N\Nc1ccc2nncn2n1)c1ccccn1 | 37.2 µM
CN1CCCN(C(c2ccccc2)c2ccc(Cl)cc2)CC1 (centres undefined) | 37.7 µM
O=C(Cn1cc[n+](CC(=O)c2ccc(Cl)cc2Cl)c1)c1ccc(Cl)cc1Cl | 27.6 µM
CN(C)c1ccc2nc3ccc(=[N+](C)C)cc-3sc2c1 | 45.3 µM
Nc1c2ccccc2nc2ccccc12 | 39.5 µM
CCN(CC)C(=S)SSC(=S)N(CC)CC | 74.7 µM
O=C(/C=C(\O)c1ccccc1)C(=O)NNC(=O)c1ccccc1 | 44.5 µM
NC1=NC2=C(CCCC2)C2(CCCCC2)S1 | 63.8 µM
O=C(CCN1CCN(c2ccccc2)CC1)N/N=C/c1ccc([N+](=O)[O-])o1 | 131 µM
O=C(C[n+]1cc(-c2ccccc2)n2c1CCC2)Nc1nc(-c2ccc(F)cc2)cs1 | 37 µM
CN(C)CCN(C(=O)C1=COCCO1)c1nc2ccc(Cl)cc2s1 | 49.5 µM
Fc1ccc(CCNCc2ccc(Cl)c(Cl)c2)cc1 | 36.6 µM
N=c1n(CCN2CCCCC2)c2ccccc2n1CC(O)COc1ccccc1 (centres undefined) | 29.7 µM
CCn1cc(C(=O)O)c(=O)c2cc(F)c(N3CCN(C)CC3)cc21 | 1.23 µM
CCn1cc(C(=O)NCCCN(C)C)c(=O)c2cc(F)c(N3CCN(C)CC3)cc21 | 96.4 µM
CNCc1c(OCc2ccccc2F)ccc2ccccc12 | 37.2 µM
c1ccc2c(c1)OC(CCCN1CCCCC1)c1ccccc1S2 (centres undefined) | 76.4 µM
Cc1ccc(S(=O)(=O)NNc2ccccc2)cc1 | 89.5 µM
CN1CCN(c2cc3c(cc2F)c(=O)c(C(=O)O)cn3CCF)CC1 | 1.06 µM
O=C(Nc1ccc(Cl)cc1)Nc1ccc2c(c1)N1CCN=C1S2 | 76.3 µM
CCN(CC(=O)NC(C)(C)C)C(=O)COc1c(Cl)cc(Cl)c2ccc(C)nc12 | 19 µM

Structure (SMILES) | IC50
Oc1ccccc1C(Nc1nccs1)c1ccc2cccnc2c1O (centres undefined) | 18.6 µM
Cc1ccc(C)c(N/C(N)=N/c2nc(C)cc(C)n2)c1 | 67.4 µM
CNC[C@@H](Cc1ccccc1)NC[C@@H](CC1CCCCC1)NCCCc1ccccc1 | 19.8 µM
COc1ccccc1CNCCc1ccc(F)cc1 | 33 µM
CC1=NN(c2nc3ccccc3[nH]2)C(=O)C1Cc1ccccc1 (centres undefined) | 34.2 µM
O=C(N/N=C/c1ccc([N+](=O)[O-])o1)C(O)c1ccccc1 (centres undefined) | 37.4 µM
Oc1ccc(CN2CCCc3ccccc32)c2cccnc12 | 57.2 µM
Cc1cc(OCCCCCN2CCCC2)ccc1Cl | 51 µM
O=C(CN1C2=NCCCN2c2ccccc21)c1ccc2c(c1)OCO2 | 126 µM
C=CCc1cc(Cl)ccc1OCCCNCCO | 94.2 µM
CN(C)CCNc1oc(COc2ccc(-c3ccccc3)cc2)nc1C#N | 39 µM
O=C(Nc1nccs1)c1ccc(Cl)cc1[N+](=O)[O-] | 97.6 µM
CSc1ccccc1NC(=O)CN1CCCCC1C (centres undefined) | 131 µM
CCN1/C(=C/c2cc[n+](C)cc2)C=Cc2cc(C)ccc21 | 39.4 µM
COc1cc(C(=O)N/N=C/c2ccc(OC(=O)c3cccc(C)c3)c(OC)c2)ccc1O | 108 µM
CCCCNCCCOc1cccc(Cl)c1Cl | 58.5 µM
N=c1n(CCN2CCCCC2)c2ccccc2n1CC(=O)c1ccc(Cl)c(Cl)c1 | 16.4 µM
O=C(N/N=C/c1ccc([N+](=O)[O-])s1)c1cccnc1 | 34.7 µM
Cc1ccc(N/C(=C\C(=O)c2ccccc2)C(=O)O)cc1 | 74.4 µM
Cc1cc(C2N=C(N)Nc3nc4ccccc4n32)c(C)n1-c1ccccc1Cl (centres undefined) | 32.8 µM
O=C1CSC(=S)N1c1cccc(O)c1 | 59.9 µM
O=C(NC(=S)NNC(=O)c1ccccc1O)c1ccco1 | 25.8 µM
CN1CCCN(S(=O)(=O)c2ccc3ccccc3c2)CC1 | 46 µM
CNCCCC1c2ccccc2C=Cc2ccccc21 | 67.1 µM

Structure (SMILES) | IC50
O=C(O)c1ccc(N2C(=O)CSC2=S)cc1 | 137 µM
O=C(Nc1nnc(C2COc3ccccc3O2)o1)c1ccc(F)cc1 (centres undefined) | 37.8 µM
CN(C)CCCN1c2ccccc2CCc2ccc(Cl)cc21 | 70.5 µM
Cc1ccc(-c2csc(N=C(N)N)n2)c(C)c1 | 46.3 µM
CC(C)(C)c1ccc(NC(=O)COC(=O)c2ccc([N+](=O)[O-])s2)cc1 | 15.1 µM
CC[n+]1c(/C=C/C=C/c2ccc(N(C)C)cc2)sc2ccccc21 | 128 µM
Cc1occc1C(=O)N/N=C/C=C/c1ccccc1 | 97.1 µM
COc1cc(/C=C2/C(=O)NN(c3ccc(F)cc3)C2=O)cc([N+](=O)[O-])c1O | 62.6 µM
CN1CCC(OC(=O)c2cccc(Br)c2)CC1 | 55.9 µM
COc1c(N2CCNC(C)C2)c(F)cc2c(=O)c(C(=O)O)cn(C3CC3)c12 (centres undefined) | 1.1 µM
COc1ccc(Nc2c3c(nc4ccccc24)CCC3)cc1 | 113 µM
N=c1n(CC(=O)c2ccc(Br)s2)c2ccccc2n1Cc1ccccc1 | 27.3 µM
O=C(CN1C2=NCCCN2c2ccccc21)c1ccc(Br)s1 | 40.2 µM
CCC(C)(C)c1ccc(OCCCC[n+]2ccccc2)c(C(C)(C)CC)c1 | 35.3 µM
O=C(N=Nc1c(O)[nH]c2ccccc12)c1cc(-c2cccs2)[nH]n1 | 81.4 µM
COc1ccc(Nc2nc(NCC3CCCO3)c3ccccc3n2)c(OC)c1 (centres undefined) | 73.2 µM
OCCN1CCN(C2Cc3cc(Cl)ccc3Sc3ccc(Cl)cc32)CC1 (centres undefined) (tested in a mixture with another compound) | 25.9 µM
OC(CNCc1ccco1)Cn1c2ccc(Br)cc2c2cc(Br)ccc21 (centres undefined) | 18.9 µM
Fc1ccc(CCNCc2ccccc2Cl)cc1 | 83.2 µM
CCCCCCCCCCCCCCCC[n+]1ccc(C(N)=O)cc1 | 9.85 µM
NC(=O)SCC(=O)Nc1ccc(Cl)cc1 | 46.2 µM
O=C(N/N=C\c1cccc([N+](=O)[O-])c1O)C1COc2ccccc2O1 (centres undefined) | 11.7 µM
Cc1cc([N+](=O)[O-])cc(/C=N/n2c(C)nc3ccccc3c2=O)c1O | 78.1 µM
